Ends that are not written are not given here.
How the values were obtained:
ACE = settings: peptides <3 kDa from fermented goat milk; cited from earlier work
Description: Among them, VLPVPQKAV ...

[1] = molecular target: T1, Angiotensin Converting Enzyme from rabbit lung (Oryctolagus cuniculus, UniProt P12822); assay: ACE-inhibitory activity assay (RP-HPLC, HHL substrate); assay type: biochemical; settings: HHL 6.5 mM, ACE 0.2 U, 37°C, 60 min, pH 8.3; HA at 228 nm by RP-HPLC; mean ± SD; sample concentration not given
T1 construct: Angiotensin Converting Enzyme from rabbit lung; purchased Sigma-Aldrich; host or cells: rabbit lung tissue
T1 sequence (P12822 34-1310): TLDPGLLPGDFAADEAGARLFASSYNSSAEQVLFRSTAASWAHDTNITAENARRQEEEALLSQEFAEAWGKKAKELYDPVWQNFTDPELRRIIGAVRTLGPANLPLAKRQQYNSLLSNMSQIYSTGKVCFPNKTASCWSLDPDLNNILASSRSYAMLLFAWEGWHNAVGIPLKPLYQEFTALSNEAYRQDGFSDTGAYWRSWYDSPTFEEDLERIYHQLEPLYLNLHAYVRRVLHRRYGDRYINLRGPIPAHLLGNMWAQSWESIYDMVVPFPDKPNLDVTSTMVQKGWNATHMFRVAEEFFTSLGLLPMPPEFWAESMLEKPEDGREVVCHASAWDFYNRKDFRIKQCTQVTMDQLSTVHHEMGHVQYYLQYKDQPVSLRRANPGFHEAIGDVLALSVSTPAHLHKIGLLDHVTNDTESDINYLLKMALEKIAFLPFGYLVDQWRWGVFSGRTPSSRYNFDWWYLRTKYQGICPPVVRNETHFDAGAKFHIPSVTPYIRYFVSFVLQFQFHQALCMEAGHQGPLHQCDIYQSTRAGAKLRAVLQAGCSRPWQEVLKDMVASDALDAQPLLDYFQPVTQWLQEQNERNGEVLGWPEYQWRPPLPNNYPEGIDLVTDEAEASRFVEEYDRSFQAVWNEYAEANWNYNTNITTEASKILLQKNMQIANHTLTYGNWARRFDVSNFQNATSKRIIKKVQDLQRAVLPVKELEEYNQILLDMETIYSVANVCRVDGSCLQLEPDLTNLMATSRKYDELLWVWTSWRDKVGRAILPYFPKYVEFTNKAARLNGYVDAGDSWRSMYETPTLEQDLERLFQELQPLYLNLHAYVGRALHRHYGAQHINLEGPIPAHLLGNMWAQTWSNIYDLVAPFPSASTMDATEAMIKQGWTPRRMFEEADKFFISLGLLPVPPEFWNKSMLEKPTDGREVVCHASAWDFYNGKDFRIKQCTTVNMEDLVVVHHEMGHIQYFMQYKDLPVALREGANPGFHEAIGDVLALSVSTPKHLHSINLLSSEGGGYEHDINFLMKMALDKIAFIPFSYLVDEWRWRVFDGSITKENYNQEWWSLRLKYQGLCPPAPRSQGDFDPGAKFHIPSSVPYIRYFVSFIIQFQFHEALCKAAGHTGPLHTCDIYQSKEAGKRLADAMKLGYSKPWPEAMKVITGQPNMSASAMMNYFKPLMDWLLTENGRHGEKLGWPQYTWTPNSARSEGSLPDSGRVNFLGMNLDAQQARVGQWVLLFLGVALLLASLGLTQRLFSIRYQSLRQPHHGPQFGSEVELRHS
Protocol: (§1) ACE inhibitory activity was measured using an RP-HPLC method with Hippuryl-His-Leu (HHL) as a substrate, which generated hippuric acid (HA) under enzymatic hydrolysis ([19]). The sample was dissolved in a borax-boric acid buffer containing 0.15 M NaCl (pH = 8.3). Firstly, add 10 μL ACE (0.2 U) to the sample tube and blank tube, respectively. At the same time, add 10 μL of sample to the sample tube, and add 10 μL of buffer and 80 μL of 1 M HCl to the blank tube, then pre-incubate at 37°C for 5 min. The reaction was initiated by adding 30 μL HHL (6.5 mM) and incubated for 60 min at the same temperature until 80 μL 1 M HCl was added to terminate the reaction.
ACE inhibitory activity (%) was confirmed by monitoring the formation of HA at 228 nm as detected by RP-HPLC on a C18 column (250 × 4.6 mm, 5 μm, Ecosil). The mobile phase was 25% acetonitrile and 75% water with 0.01% trifluoroacetic acid with a flow rate of 1 mL/min. The inhibition activity was calculated using the following equation:
Inhibition activity(%)=A-B-A0/A-A0×100%
Where, A = the HA peak area of the control; B = the HA peak area of the sample; A0 = the HA peak area of control with HCL before pre-incubated.
The inhibitory activity of the hydrolysates or collected fractions was expressed as percentage of ACE inhibition at a given protein concentration ([20]).

[2] = molecular target: T1, Angiotensin Converting Enzyme from rabbit lung; assay: Inhibitory kinetics study (Lineweaver-Burk plot); assay type: biochemical; settings: different HHL and peptide concentrations
Protocol: Briefly, the enzyme activities were measured with different concentrations of the substrate (HHL) and the ACE inhibitory pattern in the presence of the inhibitor was determined with a Lineweaver–Burk plot.

[3] = molecular target: T1, Angiotensin Converting Enzyme from rabbit lung; assay: ACE inhibitory activity after in vitro gastrointestinal digest; assay type: biochemical
Protocol: as §1
In vitro digestion of the potent purified ACE inhibitory peptide was carried out according to the reported method, with some adjustments ([22], [23]). Peptide (0.4 mL, 1.5 mg mL^−1) was incubated with 2% (w/w) α-amylase, pepsin, or trypsin at 37°C.
In successive digestion tests, the peptide was first dissolved in buffer solution (pH 6.8) to 2 mg mL^−1 and incubated with α-amylase for 5 min. Then the pH was decreased to pH 2 with the addition of 1 M HCl. Subsequently, the gastric digestion was initiated by adding pepsin at an enzyme-substrate ratio of 2:100 (w/w). The reaction was stopped after 2 h by raising the pH to 8.0 with 1 M NaOH, and trypsin was added to the reactor to continue gastrointestinal digestion for 4 h. Last, the reaction mixture was heated for 15 min in boiling water to inactivate the enzyme.

A7r5 cells [4] = assay: Cell cytotoxicity test (CCK-8); assay type: cell-based, rat; settings: 1–200 μg mL^−1, 24 h, CCK-8, P > 0.05
Protocol: The cytotoxic effects of FPQYLQYPY in cell culture were evaluated using the Cell Counting Kit-8. First, A7r5 cells were seeded at 1 × 10^4 cells per well into 96-well plates (Costar, Corning, NY, USA) and cultured in a 5% CO2 incubator at 37°C for 24 h. Then, the medium of each well was replaced by 100 μL of fresh medium with different concentrations of FPQYLQYPY (0, 1, 5, 10, 50, 100, or 200 μg mL^−1). After further incubation for 24 h, 10 μL CCK-8 solution was added to each well. Then, the plate was incubated for another 2 h.

A7r5 cells [5] = assay: Wound healing assay of Ang II-stimulated VSMCs; assay type: cell-based, rat; settings: 100 μg mL^−1, Ang II 1 μM, 24 h, ImageJ
Protocol: Migration of A7r5 cells was evaluated using the wound healing assay ([25]). Three lines were drawn horizontally on the back of each hole on the 6-well plate with a marker. Cells in logarithmic growth phase were evenly seeded into 6-well plates with 2 × 10^5 cells per well, and grown in complete medium until the cells covered the bottom of the plate, then the medium was replaced by quiescing medium for overnight.
Afterwards, a sterile 200 μL spear head was used to quickly delimit at an average equal distance in the vertical direction according to the marking line, and washed with PBS to remove the floating cells. […] The migration distance was analyzed by ImageJ software.

A7r5 cells [6] = assay: Transwell cell migration assay of Ang II-stimulated VSMCs; assay type: cell-based, rat; settings: 48 h, Ang II in lower chamber, crystal violet, absorbance 570 nm
Protocol: A7r5 cells were collected and suspended in DMEM (1% FBS), and then the density was adjusted to 2 × 10^5 cells ml^−1. In each group, cell suspensions with or without FPQYLQYPY were cultured in the upper chamber of a Transwell (8.0 μm, Corning, NY, USA) ([26]), and at the same time, the lower chamber was filled with or without Ang II for 48 h. […] After rinsing with PBS, a cotton swab was used to remove the upper unmigrated cells. The migratory cells were observed and photographed under an inverted microscope. Last, a 33% acetic acid solution was added to quantify the crystal violet, and the absorbance of samples was measured at a wavelength of 570 nm using a microplate reader.

A7r5 cells [7] = assay: Real time quantitative RT-PCR of differentially expressed genes; assay type: cell-based, rat; settings: FPQYLQYPY-treated group vs Ang II-treated group
Protocol: Total RNA was extracted from A7r5 cells using TRIzol reagent, according to the manufacturer's specifications. The information of primer sequences is shown in Supplementary Table 1. RT reactions were performed in a GeneAmp® PCR System 9700 (Applied Biosystems, USA). Then, Real-time PCR was performed using the LightCycler® 480 II Real-time PCR Instrument (Roche, Swiss). The relative expression level was calculated using the 2^−ΔΔCt.

A7r5 cells [8] = settings: co-treatment 10, 50, 100 μg mL^−1 with Ang II 0.1 μM, 24 h, CCK-8
Protocol: The rat aortic vascular smooth muscle cell line A7r5, was purchased from Cell bank of Chinese Academy of Sciences (Shanghai, China). A7r5 cells between passage 8 and 20 were grown in DMEM supplemented with 10% FBS and antibiotics until they reached confluence. For experiments, the confluent cells were placed in a quiescing medium (DMEM + 1% FBS + antibiotics) ([24]) for 24 h, before treatment with different concentrations of [sequence] and Ang II for different time periods.
Cell proliferation was measured by the Cell Counting Kit-8. A7r5 cells were seeded at 5 × 10^3 cells per well into 96-well plates and grown in DMEM with 10% of FBS for 24 h, then the medium was replaced by quiescing medium overnight. The cells were co-treated with different concentrations of [sequence] (0, 10, 50, 100 μg mL^−1) and Ang II (0.1 μM) for 24 h. The absorbance of samples at a wavelength of 450 nm was measured using a microplate reader. The cell survival rate (%) was determined by the percentage of living cells in the test wells compared to the control wells.

[9] = molecular target: T2, Angiotensin Converting Enzyme from rabbit lung (rabbit) (UniProt P12822)
T2 sequence: T1 sequence (P12822 34-1310)

[10] = molecular target: T2, Angiotensin Converting Enzyme from rabbit lung (rabbit); remark: listed apart in the source
[11] = before digestion (inactivated enzyme), mean ± SD

In the case of VLPVPQKAVPQ, the ACE-inhibitory activity (ACE) is listed as “good ACE-inhibitory activity”.

In the case of VLPVPQKVVPQ, the ACE-inhibitory activity (ACE) is given as “good ACE-inhibitory activity”.

With FPQYLQYPY [FPQYLQYPY, also synthesized] the ACE inhibition rate [1] was 71.19 ± 0.71%, the “Inhibition pattern against ACE” value [2] was “non-competitive” and the “ACE inhibitory (%), oral digestion (α-Amylase), Digested” value ([3]; 2% (w/w) α-amylase, pH 6.8, 5 min, 37°C, mean ± SD) was 57.95 ± 0.22%. For the same molecule, the “ACE inhibitory (%), gastric digestion (Pepsin), Original” value [3, 11] was 54.12 ± 1.56%, the “ACE inhibitory (%), intestinal digestion (Trypsin), Original” value [3, 11] was 49.86 ± 1.68% and the “ACE inhibitory (%), oral digestion (α-Amylase), Original” value [3, 11] was 53.47 ± 7.32%. The “ACE inhibitory (%), gastric digestion (Pepsin), Digested” value ([3]; pepsin 2:100 (w/w), pH 2, 2 h, 37°C, mean ± SD) was 56.41 ± 1.91%, the “ACE inhibitory (%), intestinal digestion (Trypsin), Digested” value ([3]; trypsin 2% (w/w), pH 8.0, 4 h, 37°C, mean ± SD) was 45.76 ± 0.42% and the “Change of ACE inhibitory activity after incubation with the digestive enzymes” value ([3]; α-amylase, pepsin, trypsin, 37°C, read-out ACE inhibition) was “no significant difference”. The “Cytotoxic effect on A7r5 cells” value (A7r5 cells [4]) was “no obvious cytotoxic effect”, the “Distance of the wound healing area (migration)” value (A7r5 cells [5]) was “restore the distance of the wound healing area to the level of the control group” and the “Cell migration in Transwell experiment” value (A7r5 cells [6]) was “the decrease in the level of cell migration was noteworthy”. For the same molecule, the “Cox5b mRNA expression” value (A7r5 cells [7]) was “downregulated”, the “Efna4 mRNA expression” value (A7r5 cells [7]) was “downregulated” and the “Igf1r mRNA expression” value (A7r5 cells [7]) was “downregulated”. The “Itga3 mRNA expression” value (A7r5 cells [7]) was “downregulated”, the “Myl4 mRNA expression” value (A7r5 cells [7]) was “upregulated” and the “Plcb3 mRNA expression” value (A7r5 cells [7]) was “downregulated”. For the same molecule, the “Shc4 mRNA expression” value (A7r5 cells [7]) was “upregulated”, the “Taok3 mRNA expression” value (A7r5 cells [7]) was “downregulated” and the “Tgfb1 mRNA expression” value (A7r5 cells [7]) was “upregulated”. The “Proliferation of Ang II-stimulated VSMCs” value (A7r5 cells [8]) was “significantly decreased the percentage of proliferating cells”.

B1: ACE-inhibitory peptide Phe-Pro-Gln-Tyr-Leu-Gln-Tyr-Pro-Tyr (…) (peptide)
peptide: FPQYLQYPY
Molecule B1 has an ACE inhibitory (%), undigested peptide ('Original') of the gastric digestion step (pepsin) [9] of 54.1%, an ACE inhibitory (%), undigested peptide ('Original') of the intestinal digestion step (trypsin) [9] of 49.9% and an ACE inhibitory (%), undigested peptide ('Original') of the oral digestion step (α-amylase) [9] of 53.5%. The ACE-inhibitory ability (%) of the purified fraction F3 (HHL substrate, hippuric acid by RP-HPLC; concentration not given) [10] was 71.2%.
